US20220315621A1, “COMPOSITIONS AND METHODS FOR TREATING CNS DISORDERS” (priority 2017, published 2022)

Molecular target: GABAA receptor (rat brain cortical membranes, [35S]-TBPS binding)
Conditions: Table I-4; rat brain cortical membranes, 3 nM [35S]-TBPS, in the presence of 5 mM GABA

SMILES	IC50 [nM]
C[C@]12CC[C@H]3[C@@H](CC[C@@H]4C[C@H](O)CC[C@@H]43)[C@@H]1CC[C@H](C(=O)Nc1ccccc1)C2 (single isomer, unassigned) [I-R24]	1000 to 10000
C[C@@]1(O)CC[C@H]2[C@H](CC[C@@H]3[C@@H]2CC[C@]2(C)[C@@H](Nc4ccc(C#N)cc4)CCC[C@@H]32)C1 [Compound I-7, 4-(((1S,4aS,4bR,6aR,8R,10aS,10bR,12aS)-8-hydroxy-8,12a-dimethyloctadecahydrochrysen-1-yl)amino)benzonitrile]	10 to 100
C[C@@]1(O)CC[C@H]2[C@H](CC[C@@H]3[C@@H]2CC[C@]2(C)[C@@H](Nc4ccc(Cl)cc4)CCC[C@@H]32)C1 [Compound I-8, (2R,4aS,4bR,6aS,7S,10aS,10bR,12aR)-7-((4-chlorophenyl)amino)-2,6a-dimethyloctadecahydrochrysen-2-ol]	10 to 100
C[C@@]1(O)CC[C@H]2[C@H](CC[C@@H]3[C@@H]2CC[C@]2(C)[C@@H](Nc4cccc(Cl)c4)CCC[C@@H]32)C1 [Compound I-9, (2R,4aS,4bR,6aS,7S,10aS,10bR,12aR)-7-((3-chlorophenyl)amino)-2,6a-dimethyloctadecahydrochrysen-2-ol]	10 to 100
C[C@@]1(O)CC[C@H]2[C@H](CC[C@@H]3[C@@H]2CC[C@]2(C)[C@@H](Nc4cccc(C#N)c4)CCC[C@@H]32)C1 [Compound I-10, 3-(((1S,4aS,4bR,6aR,8R,10aS,10bR,12aS)-8-hydroxy-8,12a-dimethyloctadecahydrochrysen-1-yl)amino)benzonitrile]	10 to 100
C[C@@]1(O)CC[C@H]2[C@H](CC[C@@H]3[C@@H]2CC[C@]2(C)[C@H](Nc4cccc(C#N)c4)CCC[C@@H]32)C1 [Compound I-10a, 3-(((1R,4aS,4bR,6aR,8R,10aS,10bR,12aS)-8-hydroxy-8,12a-dimethyloctadecahydrochrysen-1-yl)amino)benzonitrile]	100 to 1000
C[C@@]1(O)CC[C@H]2[C@H](CC[C@@H]3[C@@H]2CC[C@]2(C)[C@@H](Nc4ccc(F)cc4)CCC[C@@H]32)C1 [Compound I-11, (2R,4aS,4bR,6aS,7S,10aS,10bR,12aR)-7-((4-fluorophenyl)amino)-2,6a-dimethyloctadecahydrochrysen-2-ol]	100 to 1000
C[C@@]1(O)CC[C@H]2[C@H](CC[C@@H]3[C@@H]2CC[C@]2(C)[C@H](Nc4ccc(F)cc4)CCC[C@@H]32)C1 [Compound I-11a, (2R,4aS,4bR,6aS,7R,10aS,10bR,12aR)-7-((4-fluorophenyl)amino)-2,6a-dimethyloctadecahydrochrysen-2-ol]	1000 to 10000
C[C@@]1(O)CC[C@H]2[C@H](CC[C@@H]3[C@@H]2CC[C@]2(C)[C@@H](Nc4cccc(F)c4)CCC[C@@H]32)C1 [Compound I-12, (2R,4aS,4bR,6aS,7S,10aS,10bR,12aR)-7-((3-fluorophenyl)amino)-2,6a-dimethyloctadecahydrochrysen-2-ol]	10 to 100
C[C@@]1(O)CC[C@H]2[C@H](CC[C@@H]3[C@@H]2CC[C@]2(C)[C@@H](C(=O)NCc4ccccc4)CCC[C@@H]32)C1 [Compound I-14, (1S,4aS,4bR,6aR,8R,10aS,10bR,12aS)-N-benzyl-8-hydroxy-8,12a-dimethyloctadecahydrochrysene-1-carboxamide]	10 to 100
C[C@@]1(O)CC[C@H]2[C@H](CC[C@@H]3[C@@H]2CC[C@]2(C)[C@@H](C(=O)Nc4ccccc4)CCC[C@@H]32)C1 [Compound I-15, (1S,4aS,4bR,6aR,8R,10aS,10bR,12aS)-8-hydroxy-8,12a-dimethyl-N-phenyloctadecahydrochrysene-1-carboxamide]	10 to 100
CCN(CC)C(=O)[C@H]1CCC[C@H]2[C@@H]3CC[C@@H]4C[C@](C)(O)CC[C@@H]4[C@H]3CC[C@]12C [Compound I-16, (1S,4aS,4bR,6aR,8R,10aS,10bR,12aS)-N,N-diethyl-8-hydroxy-8,12a-dimethyloctadecahydrochrysene-1-carboxamide]	1000 to 10000
C[C@@]1(O)CC[C@H]2[C@H](CC[C@@H]3[C@@H]2CC[C@]2(C)[C@@H](C(=O)NCc4ccccn4)CCC[C@@H]32)C1 [Compound I-17, (1S,4aS,4bR,6aR,8R,10aS,10bR,12aS)-8-hydroxy-8,12a-dimethyl-N-(pyridin-2-ylmethyl)octadecahydrochrysene-1-carboxamide]	10 to 100
Cc1nnn(CC(=O)[C@H]2CCC[C@H]3[C@@H]4CC[C@@H]5C[C@](C)(O)CC[C@]5(C)[C@H]4CC[C@]23C)n1 [Compound I-20, 1-((1S,4aS,4bR,6aR,8R,10aS,10bS,12aS)-8-hydroxy-8,10a,12a-trimethyloctadecahydrochrysen-1-yl)-2-(5-methyl-2H-tetrazol-2-yl)ethan-1-one]	100 to 1000
Cc1nnnn1CC(=O)[C@H]1CCC[C@H]2[C@@H]3CC[C@@H]4C[C@](C)(O)CC[C@]4(C)[C@H]3CC[C@]12C [Compound I-20a, 1-((1S,4aS,4bR,6aR,8R,10aS,10bS,12aS)-8-hydroxy-8,10a,12a-trimethyloctadecahydrochrysen-1-yl)-2-(5-methyl-1H-tetrazol-1-yl)ethan-1-one]	100 to 1000
COC[C@@]1(O)CC[C@H]2[C@@H](CC[C@@H]3[C@@H]2CC[C@]2(C)[C@@H](Nc4ccc(F)cc4)CCC[C@@H]32)C1 [Compound I-23, (2R,4aS,4bR,6aS,7S,10aS,10bR,12aS)-7-((4-fluorophenyl)amino)-2-(methoxymethyl)-6a-methyloctadecahydrochrysen-2-ol]	10 to 100
COC[C@@]1(O)CC[C@H]2[C@@H](CC[C@@H]3[C@@H]2CC[C@]2(C)[C@H](Nc4ccc(F)cc4)CCC[C@@H]32)C1 [Compound I-23a, (2R,4aS,4bR,6aS,7R,10aS,10bR,12aS)-7-((4-fluorophenyl)amino)-2-(methoxymethyl)-6a-methyloctadecahydrochrysen-2-ol]	1000 to 10000
COC[C@@]1(O)CC[C@H]2[C@@H](CC[C@@H]3[C@@H]2CC[C@]2(C)[C@@H](C(=O)NCc4ccccc4)CCC[C@@H]32)C1 [Compound I-25, (1S,4aS,4bR,6aS,8R,10aS,10bR,12aS)-N-benzyl-8-hydroxy-8-(methoxymethyl)-12a-methyloctadecahydrochrysene-1-carboxamide]	10 to 100
COC[C@@]1(O)CC[C@H]2[C@@H](CC[C@@H]3[C@@H]2CC[C@]2(C)[C@@H](C(=O)NCc4ccccn4)CCC[C@@H]32)C1 [Compound I-26, (1S,4aS,4bR,6aS,8R,10aS,10bR,12aS)-8-hydroxy-8-(methoxymethyl)-12a-methyl-N-(pyridin-2-ylmethyl)octadecahydrochrysene-1-carboxamide]	100 to 1000
COC[C@@]1(O)CC[C@H]2[C@@H](CC[C@@H]3[C@@H]2CC[C@]2(C)[C@@H](C(=O)Nc4ccccc4)CCC[C@@H]32)C1 [Compound I-27, (1S,4aS,4bR,6aS,8R,10aS,10bR,12aS)-8-hydroxy-8-(methoxymethyl)-12a-methyl-N-phenyloctadecahydrochrysene-1-carboxamide]	10 to 100
CCOC[C@@]1(O)CC[C@H]2[C@@H](CC[C@@H]3[C@@H]2CC[C@]2(C)[C@@H](O)CCC[C@@H]32)C1 [Compound I-39, (1S,4aS,4bR,6aS,8R,10aS,10bR,12aS)-8-(ethoxymethyl)-12a-methyloctadecahydrochrysene-1,8-diol]	1000 to 10000
CCOC[C@@]1(O)CC[C@H]2[C@@H](CC[C@@H]3[C@@H]2CC[C@]2(C)[C@@H](OC)CCC[C@@H]32)C1 [Compound I-40, (2R,4aS,4bR,6aS,7S,10aS,10bR,12aS)-2-(ethoxymethyl)-7-methoxy-6a-methyloctadecahydrochrysen-2-ol]	100 to 1000
C[C@@H]1CC[C@H]2[C@@H]3CC[C@@H]4C[C@](C)(O)CC[C@@H]4[C@H]3CC[C@]2(C)C1=O [Compound I-50, (2R,4aS,4bR,6aR,8R,10aS,10bR,12aS)-8-hydroxy-2,8,12a-trimethylhexadecahydrochrysen-1(2H)-one]	1000 to 10000
COC[C@@]1(O)CC[C@H]2[C@H](CC[C@@H]3[C@@H]2CC[C@]2(C)C(=O)[C@H](C)CC[C@@H]32)C1 [Compound I-53, (2R,4aS,4bR,6aR,8R,10aS,10bR,12aS)-8-hydroxy-8-(methoxymethyl)-2,12a-dimethylhexadecahydrochrysen-1(2H)-one]	1000 to 10000

Same assay, conditions: Table I-5; rat brain cortical membranes, 3 nM [35S]-TBPS, in the presence of 5 mM GABA

SMILES	IC50 [nM]
CC(=O)[C@H]1C[C@H]2[C@@H]3CC[C@@H]4C[C@](C)(O)CC[C@]4(C)[C@H]3CC[C@]12C [Compound I-103, 1-((1S,2aS,2bR,4aR,6R,8aS,8bS,10aS)-6-hydroxy-6,8a,10a-trimethylhexadecahydrocyclobuta[a]phenanthren-1-yl)ethan-1-one]	100 to 1000
CC(=O)[C@@H]1C[C@H]2[C@@H]3CC[C@@H]4C[C@](C)(O)CC[C@]4(C)[C@H]3CC[C@]12C [Compound I-103a, 1-((1R,2aS,2bR,4aR,6R,8aS,8bS,10aS)-6-hydroxy-6,8a,10a-trimethylhexadecahydrocyclobuta[a]phenanthren-1-yl)ethan-1-one]	1000 to 10000
C[C@@]1(O)CC[C@H]2[C@H](CC[C@@H]3[C@@H]2CC[C@]2(C)[C@H](C(=O)Cn4cc(C#N)cn4)C[C@@H]32)C1 [Compound I-105, 1-(2-((1R,2aS,2bR,4aR,6R,8aS,8bR,10aS)-6-hydroxy-6,10a-dimethylhexadecahydrocyclobuta[a]phenanthren-1-yl)-2-oxoethyl)-1H-pyrazole-4-carbonitrile]	1000 to 10000
